Key:
Format in all cases: cell-based, C57BL/6 mice
[1] = system: LYZ secretion by Paneth cells in organoid culture; assay: Lysozyme functional secretion assay (EnzChek), basal and CCh-stimulated
Description: In addition to the morphological, proteomic, and transcriptional characterization of PC phenotype in ENR+CD and ENR, Applicants sought to measure physiological function by assessing stimulant-induced secretion of antimicrobials. Applicants assessed the dynamics of LYZ accumulation in media supernatant of cultures following media wash, basally and after stimulation with carbachol (CCh), a cholinergic agonist known to induce PC secretion. […] The observed PC secretion in response to CCh is consistent with observations made in ex vivo crypts, though over appreciably longer time scales, likely due to the added diffusion barrier of the organoid structure and matrigel. Applicants next identified how LYZ secretion changes over the course of differentiation. Beginning with an ISC-enriched population, Applicants assayed for secreted LYZ in cell culture supernatants every two days for six days of ENR+CD culture, following a 24-hour stimulation with CCh or without (basal collection/non-stimulated).
Lysozyme functional secretion assay. Lysozyme secretion was measured using a Lysozyme Assay Kit (EnzChek; Thermo Fisher). Briefly, cells suspended in Matrigel in 24-well plates were washed (basal culture media 3X) and either supplemented with 500 μL of basal culture media or basal culture media plus 10 μM Carbachol (CCh, Sigma Aldrich) for 24 hours at 37° C. Following stimulation, culture plates were spun at high speed (>2000 g) for 5 min at RT to pellet cell debris and loose Matrigel. 25 μL of conditioned supernatant was removed from the top of each well and quantified per manufacturer's protocol.

[2] = system: in vitro PCs (CD24+ & LYZ+) in ENR+CD culture; NUPR1; assay: Trifluoperazine (NUPR1 inhibition) treatment of ENR+CD cultures, flow cytometry of viability and CD24/LYZ populations
Description: Lastly, Applicants sought to use this physiologically-improved in vitro PC system (ENR+CD) to identify novel factors potentially supportive of PC survival or differentiation. […] Intriguingly, Nupr1 is a stress-response gene, known to promote cellular survival and senescence through mediation of autophagy, and has primarily been studied in the context of cancer. Autophagy and stress response have repeatedly been implicated through GWAS study in PCs in IBD, however Nupr1 has only ever been reported in a single IBD GWAS study, and its role in PC biology has not been formally investigated. With the model, Applicants sought to test the role of NUPR1 on in vitro PC survival, through the small molecule inhibition of NUPR1 with trifluoperazine (TFP).
Flow cytometry. Cell clusters were isolated from Matrigel as previously described and resuspended in TrypLE Express at 37° C. for 20 mins to dissociate into single cells. Dissociated cells were centrifuged at 300 g for 3 mins at 4° C. The pellet was resuspended in FACS buffer (1% FBS in PBS, Thermo Fisher Scientific) and strained into a 5-mL filter cap tube using a 40 μm filter. The cell suspension was transferred to a flow prep microcentrifuge tube and centrifuged at 300 rcf for 3 min. Cell pellets were resuspended in a Zombie violet dye (BioLegend 100X) in FACS buffer for viability staining followed with 1% PFA fixation for 20 minutes at RT. Pellets were permeabilized for 20 minutes at RT with staining buffer (0.5% Tween-20 in FACS buffer, Sigma), and co-stained with rabbit anti-human FITC-Lyz (100X) and rat anti-mouse APC-CD24 (100X) antibodies diluted in staining buffer for 45 min at RT. Flow cytometry was performed using a BD LSR II HTS (BD; Koch Institute Flow Cytometry Core at MIT). Initial settings and laser voltages were determined with unstained, single channel stains or secondary-only controls (data not shown). Flow cytometry data was analyzed using FlowJo v10.7 software.

[3] = system: organoid single cells (clusters ENR, ENR+CV, ENR+CD); assay: Seq-Well single-cell RNA-sequencing and transcriptional scoring of ENR+CV, ENR and ENR+CD organoids; conditions: p<2.2×10^−16
Description: Applicants performed scRNA-seq using the Seq-Well platform on cells from ENR+CD and the precursor ENR+CV conditions to analyze alongside conventional ENR organoids. To ensure experimental robustness, Applicants assessed quality metrics for number of genes, unique molecular identifiers (UMIs), mitochondrial genes, and ribosomal genes by cluster, all of which fell within expectation (FIG. 11).
To assess sub-population structure and provide a more robust measure of composition beyond canonical marker genes, Applicants performed unsupervised KNN graph-based clustering on the captured cells (FIG. 4C,D and Table 1 for full gene lists), distinguishing four clusters in each treatment condition. Applicants then scored individual clusters according to the amount of the transcriptome within each cell dedicated to synthesizing the respective enriched proteins from the bulk proteome data.
To confirm and extend the findings of pathway-based modulation, Applicants scored clusters for enrichment or depletion of canonical growth factor-induced pathways.

[4] = system: intracellular proteome of ENR+CD and ENR organoids; assay: LC-MS/MS TMT proteomics of ENR+CD versus ENR organoids; conditions: for change: up = enriched in ENR+CD, down = enriched in ENR, FDR<0.05 and log fold change cut-off
Description: Because PCs are highly secretory, protein-rich cells, Applicants sought to assess the total intracellular proteome between conditions through liquid chromatography mass spectrometry (LC-MS/MS)-based proteomics. Applicants quantified relative protein abundance across eight samples using isobaric mass tag labeling from four ENR and four ENR+CD samples (M1-1 through M2-2, first digit denotes biological donor, second digit denotes technical replicate) (FIG. 3A). Samples were processed and analyzed in a single 10-plex by LC-MS/MS (FIG. 9A).
To affirm the reproducibility of the associated proteins in the ENR+CD-enriched proteome, Applicants performed relative quantification within differentiation sets.
Mass spectrometry proteomics sample preparation, sequencing, and quantification. Organoid cell pellets were isolated from Matrigel with mechanical dissociation and washed (cold PBS 5X) to remove residual extracellular protein. Proteins were extracted from cell pellets with 8 M urea (Sigma), reduced with 5 mM DTT (Thermo Fisher Pierce) for 45 minutes, alkylated with 10 mM IAA (Sigma) for 45 minutes in the dark, and double digested with both Lysyl Endopeptidase “LysC” (Wako) and trypsin (Promega) overnight at RT. A small aliquot of cellular lysate was removed from each sample for protein quantification via the Pierce™ BCA Protein Assay Kit (Pierce). After proteolytic digestion, the samples were quenched using formic acid to a final concentration of 1.0% and subsequently desalted on 10 mg OASIS HLB solid phase columns (Waters).
The peptides were labeled with TMT-10 isobaric mass tag reagent according to manufacturer's instructions (ThermoFisher Scientific). The peptides were labeled at a 1:8 ratio of peptide to TMT reagent, followed by 1-hour incubation at RT with bench top shaking at 850 rpm. After incubation, a […] of labeled tryptic peptide was removed from each labeled condition, desalted with C18 stage tips, and analyzed via LC-MS/MS using a Thermo Fisher Q Exactive Plus Hybrid Mass Spectrometer (QE-Plus) coupled to a Thermo Fisher EASY-nLC 1000 liquid chromatograph to ensure isobaric label incorporation >95%. An additional 1.0 μg of labeled tryptic peptide was removed from each channel, mixed together, desalted on a C18 stage tip, and analyzed via LC-MS to ensure equal relative protein loads. During these quality control steps, the labeled peptides were stored, unquenched at −80° C.

[5] = doses above luM, in combination with ENR+CD for six days
[6] = protein abundance, ENR+CD versus ENR organoids, aggregate of the four sample pairs
[7] = protein abundance, ENR+CD versus ENR organoids, replicate M1-1, log2 ratio
[8] = protein abundance, ENR+CD versus ENR organoids, replicate M1-2, log2 ratio
[9] = protein abundance, ENR+CD versus ENR organoids, replicate M2-1, log2 ratio
[10] = protein abundance, ENR+CD versus ENR organoids, replicate M2-2, log2 ratio
[11] = ENR+CD versus ENR organoids, sample pairs in aggregate (n=4, 2 technical replicates from two biological donors)
[12] = protein abundance ratio ENR+CD versus ENR organoids, sample pair M1-1, LC-MS/MS TMT proteomics
[13] = protein abundance ratio ENR+CD versus ENR organoids, sample pair M1-2, LC-MS/MS TMT proteomics
[14] = protein abundance ratio ENR+CD versus ENR organoids, sample pair M2-1, LC-MS/MS TMT proteomics
[15] = protein abundance ratio ENR+CD versus ENR organoids, sample pair M2-2, LC-MS/MS TMT proteomics

Q: Which “plateau of LYZ accumulation in supernatant” value ([1]; 10 μM, six day ENR+CD culture) does the source give for `C[N+](C)(C)CCOC(N)=O` [CCh, carbachol] here?
A: The value was “plateaued around six hours post-wash”.

Q: And the “LYZ accumulation in media supernatant after stimulation” value ([1]; 10 μM, six day ENR+CD culture, post-wash)?
A: Its value is “rapid accumulation of LYZ within two hours”.

Q: And the “functional LYZ secretion (stimulated relative to basal) over differentiation” value ([1]; 24-hour stimulation, days four and six of ENR+CD culture)?
A: The value was “Notable increases in functional secretion”.

Q: What does the source list for `CN1CCN(CCCN2c3ccccc3Sc3ccc(C(F)(F)F)cc32)CC1` [TFP, trifluoperazine]?
A: cellular viability ([2]; added for two days following a six-day course of ENR+CD): profound, but not total, decline in cellular viability; toxicity, preference to PCs (CD24+ & LYZ+) and PC-like populations ([2]; concurrent with 6-day ENR+CD differentiation (FIG. 7C)): dose-dependent toxicity; cell death during differentiation [2, 5]: near total cell death; identity of surviving cells [2, 5]: primarily non-Paneth; selectivity of toxicity between cell populations ([2]; two days following six-day ENR+CD): selectively more toxic to PC and PC-progenitor populations relative to non-PC populations; toxicity, preference to PCs (CD24+ & LYZ+) and PC-like populations ([2]; two-day treatment following 6-day ENR+CD differentiation (FIG. 7D)): dose-dependent toxicity

Q: `C[C@H](NC(=O)Cc1cc(F)cc(F)c1)C(=O)N[C@H](C(=O)OC(C)(C)C)c1ccccc1` [DAPT] was tested. Which “Notch target gene depletion, effect size” value ([3]; ENR+CD-4 vs ENR-4) did it give?
A: Its value is −0.658.

Q: What does the source list for P97479?
A: Average logFC [4, 6]: −1.162; M1-1 Log2 Median Normalized [4, 7]: −1.135; M1-2 Log2 Median Normalized [4, 8]: −1.101; M2-1 Log2 Median Normalized [4, 9]: −1.2195; M2-2 Log2 Median Normalized [4, 10]: −1.191; change [4]: down

Q: What does the source list for Q03172?
A: Average logFC [4, 6]: 1.206; M1-1 Log2 Median Normalized [4, 7]: 0.832; M1-2 Log2 Median Normalized [4, 8]: 1.656; M2-1 Log2 Median Normalized [4, 9]: 1.2325; M2-2 Log2 Median Normalized [4, 10]: 1.102; change [4]: up

Q: Which “Average logFC” value [4, 11] does the source give for Q8BRB7 here?
A: The value was −1.345.

Q: What about the “M1-1 Log2 Median Normalized” value [4, 12] of the same compound?
A: The value was −0.966.

Q: And the “M1-2 Log2 Median Normalized” value [4, 13]?
A: The value was −1.077.

Q: And the “M2-1 Log2 Median Normalized” value [4, 14]?
A: The value was −1.3755.

Q: What about the “M2-2 Log2 Median Normalized” value [4, 15] of the same compound?
A: Its value is −1.962.

Q: What about the change [4] of the same compound?
A: Its change is “down”.

Q: How did the “Average logFC” value [4, 11] turn out when Q6ZWR6 was run?
A: The value was 1.168.

Q: What about the “M1-1 Log2 Median Normalized” value [4, 12] of the same compound?
A: The value was 1.167.

Q: What about the “M1-2 Log2 Median Normalized” value [4, 13] of the same compound?
A: The value was 0.703.

Q: What about the “M2-1 Log2 Median Normalized” value [4, 14] of the same compound?
A: The value was 1.1985.

Q: What about the “M2-2 Log2 Median Normalized” value [4, 15] of the same compound?
A: Its value is 1.566.

Q: And the change [4]?
A: Its change is “up”.

Q: How did the “Average logFC” value [4, 11] turn out when Q9QWG7 was run?
A: Its value is −1.142.

Q: And the “M1-1 Log2 Median Normalized” value [4, 12]?
A: The value was −1.032.

Q: What about the “M1-2 Log2 Median Normalized” value [4, 13] of the same compound?
A: The value was −1.575.

Q: What about the “M2-1 Log2 Median Normalized” value [4, 14] of the same compound?
A: The value was −1.8475.

Q: What about the “M2-2 Log2 Median Normalized” value [4, 15] of the same compound?
A: Its value is −0.115.

Q: What about the change [4] of the same compound?
A: The change was “down”.

Q: For `Cc1c[nH]c(-c2cnc(NCCNc3ccc(C#N)cn3)nc2-c2ccc(Cl)cc2Cl)n1` [CHIR, CHIR99021], which “Wnt target gene enrichment, effect size” value ([3]; all ENR+CD clusters vs ENR-4) is on record?
A: Its value is greater than 0.999.

Reference: US11994512B2, “Single-cell genomic methods to generate ex vivo cell systems that recapitulate in vivo biology with improved fidelity” (Massachusetts Institute of Technology, priority 2018, dated 2024)
